Test results taken from PMC10135569, “Does Enhanced Structural Maturity of hiPSC-Cardiomyocytes Better for the Detection of Drug-Induced Cardiotoxicity?” (Biomolecules, 2023).

Tests used:
[1] = system: hiPSC-CMs (iCell2 Cardiomyocytes) 2D monolayers; experiment: Membrane potential (action potential) recordings with FluoVolt voltage-sensitive dye on the CellOPTIQ platform; format: cell-based, human; conditions: for activity at 0.01 µM / activity at 0.03 µM / activity at 0.1 µM / activity at 0.3 µM: Homo sapiens, Cardiomyocyte, 0.5 h, 30 min, delta over DMSO 0.1%
In short: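 iCell2 hiPSC-CM monolayers (50,000 cells/well on fibronectin or Matrix Plus, days 5–6) were loaded with FluoVolt (1:1000, 20 min, 37 °C) and imaged at 37 °C with 470 nm excitation and 510–560 nm emission sampled at 10 kHz. Spontaneous action potentials were recorded for 10 s at baseline and 30 min after drug, with one of four concentrations per well (n = 8).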

[2] = system: hiPSC-CMs (iCell2 Cardiomyocytes) 2D monolayers; experiment: Contractility measurements using video imaging (ContractilityTool / MUSCLEMOTION); format: cell-based, human; conditions: Homo sapiens, Cardiomyocyte, 0.5 h, 30 min, delta over DMSO 0.1%
In short: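 Monolayers on fibronectin or Matrix Plus coating, tested on days 5–6 in serum-free medium. Four concentrations, one per well, n = 8, with vehicle control.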

[3] = FM monolayer, read-out: APD30 (%DD)
[4] = FM monolayer, read-out: APD90 (%DD)
[5] = FM monolayer, read-out: CL (%DD)
[6] = FM monolayer, read-out: Trise (%DD)
[7] = MM monolayer, read-out: APD30 (%DD)
[8] = MM monolayer, read-out: APD90 (%DD)
[9] = MM monolayer, read-out: CL (%DD)
[10] = MM monolayer, read-out: Trise (%DD)
[11] = both FM and MM monolayers, concentration not given
[12] = FM monolayer, read-out: CtAmp (%DD)
[13] = FM monolayer, read-out: CtD50 (%DD)
[14] = MM monolayer, read-out: CtAmp (%DD)
[15] = MM monolayer, read-out: CtD50 (%DD)

`COc1ccc([C@@H]2Sc3ccccc3N(CCN(C)C)C(=O)[C@@H]2OC(C)=O)cc1` [Diltiazem] gave an activity at 0.01 µM [1, 3] of 98 ± 1.9%, an activity at 0.01 µM [1, 4] of 96 ± 1.1% and an activity at 0.01 µM [1, 5] of 102 ± 1.1%. The activity at 0.01 µM [1, 6] was 105 ± 17%, the activity at 0.03 µM [1, 3] was 92 ± 1.5% and the activity at 0.03 µM [1, 4] was 92 ± 0.9%. The activity at 0.03 µM [1, 5] was 103 ± 1.3%, the activity at 0.03 µM [1, 6] was 103 ± 12.5% and the activity at 0.1 µM [1, 3] was 76 ± 2.7%. It also gave an activity at 0.1 µM [1, 4] of 78 ± 2.2%, an activity at 0.1 µM [1, 5] of 96 ± 0.8% and an activity at 0.1 µM [1, 6] of 91 ± 12%. For the same compound, the activity at 0.3 µM [1, 3] was 60 ± 1.3%, the activity at 0.3 µM [1, 4] was 62 ± 1.1% and the activity at 0.3 µM [1, 5] was 85 ± 0.5%. The activity at 0.3 µM [1, 6] was 116 ± 13.8%, the activity at 0.01 µM [1, 7] was 100 ± 1.9% and the activity at 0.01 µM [1, 8] was 96 ± 0.6%. The activity at 0.01 µM [1, 9] was 98 ± 0.9%, the activity at 0.01 µM [1, 10] was 86 ± 16.4% and the activity at 0.03 µM [1, 7] was 91 ± 1.2%. It also gave an activity at 0.03 µM [1, 8] of 90 ± 0.7%, an activity at 0.03 µM [1, 9] of 96 ± 0.9% and an activity at 0.03 µM [1, 10] of 79 ± 4%. It also gave an activity at 0.1 µM [1, 7] of 80 ± 1.6%, an activity at 0.1 µM [1, 8] of 77 ± 1.2% and an activity at 0.1 µM [1, 9] of 83 ± 0.6%. For the same compound, the activity at 0.1 µM [1, 10] was 79 ± 14.3%, the activity at 0.3 µM [1, 7] was 65 ± 0.8% and the activity at 0.3 µM [1, 8] was 62 ± 0.9%. The activity at 0.3 µM [1, 9] was 71 ± 0.5%, the activity at 0.3 µM [1, 10] was 74 ± 8.9% and the “effect on APD30 (in words)” value [1, 11] was “shortening”. The “effect on APD90 (in words)” value [1, 11] was “shortening”, the “effect on beating rate / spontaneous rate (in words)” value ([1]; both FM and MM, concentration not given) was “increase” and the activity at 0.01 µM [2, 12] was 142 ± 27.5%. The activity at 0.01 µM [2, 13] was 103 ± 2.8%, the activity at 0.03 µM [2, 12] was 127 ± 27.9% and the activity at 0.03 µM [2, 13] was 95 ± 1.4%. It also gave an activity at 0.1 µM [2, 12] of 108 ± 33.5%, an activity at 0.1 µM [2, 13] of 82 ± 1.6% and an activity at 0.3 µM [2, 12] of 59 ± 15.4%. The activity at 0.3 µM [2, 13] was 68 ± 1.4%, the activity at 0.01 µM [2, 14] was 101 ± 11.1% and the activity at 0.01 µM [2, 15] was 105 ± 2.7%. For the same compound, the activity at 0.03 µM [2, 14] was 94 ± 7.8%, the activity at 0.03 µM [2, 15] was 99 ± 2.6% and the activity at 0.1 µM [2, 14] was 93 ± 6.2%. It also gave an activity at 0.1 µM [2, 15] of 81 ± 1.2%, an activity at 0.3 µM [2, 14] of 73 ± 5.8% and an activity at 0.3 µM [2, 15] of 61 ± 1.9%.
